Consider 4 compounds from patent US20240199584A1, “KRAS INHIBITORS” (Bristol-Myers Squibb Company, priority 2022, published 2024).

Read-outs that look alike come from different tables or passages of the source.

In general, IC50 refers to the concentration at which inhibition is half-maximal.

For one test, the target named is T1, KRAS G12R (Homo sapiens, UniProt P01116, G12R).
T1 construct: expressed in transfected cells
The test is described as follows: Cellular KRAS:RAF Disruption Assay (NanoBRET), KRAS G12R. Type of test: cell-based. Conditions: HEK293 T cells co-expressing RAF1 and KRAS G12R, 24 hours; read-out: RAS::RAF binding via NanoBRET IC50, KRAS G12R. How it is done: (§1) Cellular KRAS:RAF Disruption Assay
(§2) Stable cell lines (HEK293 T) were generated to co-express RAF1 and mutant or wild type KRAS, as indicated, using the BiBRET vector (Promega). Engineered cell lines were suspended in media (OptiMEM, […]), plated in 384-well plates (8000 cells/well), and allowed to rest for 1.5 hours. Cells were treated with compounds for 24 hours, and NanoBRET NanoGlo substrate (Promega) was added per the manufacturer's instructions.
(BRET reads energy transfer from a luciferase to a nearby fluorophore.)

Test [1] has as its target T2, KRAS G12D (Homo sapiens, UniProt P01116, G12D). In words: biochemical.
Protocol: Recombinant GST-RAF1 RBD (Ras binding domain) (9 nM) was added, followed by the addition of SA-Tb (0.25 nM), and the reaction mixture was incubated for 3 hours. HTRF (Homogeneous Time-Resolved Fluorescence) signal was measured (PerkinElmer Envision), the signal ratio (λem 520/λem 495) was calculated, and IC50 values were calculated from the dose-response curve.
The target of another test is T3, KRAS G12V (Homo sapiens, UniProt P01116, G12V).
T3 construct: expressed in transfected cells
The test is described as follows: Cellular KRAS:RAF Disruption Assay (NanoBRET), KRAS G12V. The note with it: HEK293 T cells co-expressing RAF1 and KRAS G12V, 24 hours; read-out: RAS::RAF binding via NanoBRET IC50, KRAS G12V. Type of test: cell-based. How it is done: as §1, §2

The target of a further test is T4, KRAS G12C (Homo sapiens, UniProt P01116, G12C).
T4 construct: expressed in transfected cells
The test is described as follows: Cellular KRAS:RAF Disruption Assay (NanoBRET), KRAS G12C. Type of test: cell-based. Conditions: HEK293 T cells co-expressing RAF1 and KRAS G12C, 24 hours; read-out: RAS::RAF binding via NanoBRET IC50, KRAS G12C. How it is done:
as §1, §2

For a further test, the target named is T5, KRAS A146T (Homo sapiens, UniProt P01116, A146T).
T5 construct: expressed in transfected cells
In words: Cellular KRAS:RAF Disruption Assay (NanoBRET), KRAS A146T. Type of test: cell-based. Conditions: HEK293 T cells co-expressing RAF1 and KRAS A146T, 24 hours; read-out: RAS::RAF binding via NanoBRET IC50, KRAS A146T. On the procedure:
as §1, §2

Another test concerns the target T6, KRAS G12S (Homo sapiens, UniProt P01116, G12S).
T6 construct: expressed in transfected cells
The test is described as follows: Cellular KRAS:RAF Disruption Assay (NanoBRET), KRAS G12S. Type of test: cell-based. The note with it: HEK293 T cells co-expressing RAF1 and KRAS G12S, 24 hours; read-out: RAS::RAF binding via NanoBRET IC50, KRAS G12S. On the procedure:
as §1, §2

The target in a further test is T7, KRAS G13D (Homo sapiens, UniProt P01116, G13D).
T7 construct: expressed in transfected cells
In words: Cellular KRAS:RAF Disruption Assay (NanoBRET), KRAS G13D. Type of test: cell-based. The note with it: HEK293 T cells co-expressing RAF1 and KRAS G13D, 24 hours; read-out: RAS::RAF binding via NanoBRET IC50, KRAS G13D. How it is done: as §1, §2

Test [2] has as its target T2, KRAS G12D. In words: biochemical. The source holds these as a separate data set.
Protocol: BIODIPY-labeled GDP (BIODIPY: dipyrrometheneboron difluoride) (400 nM) and recombinant SOS (son of sevenless protein) (10 nM) were added, and the reaction was incubated for 30 minutes. HTRF signal was measured (PerkinElmer Envision), the signal ratio (λem 520/λem 495) was calculated, and IC50 values were calculated from the dose-response curve.
The target of the next test is T8, KRAS G12A (Homo sapiens, UniProt P01116, G12A).
T8 construct: expressed in transfected cells
The test is described as follows: Cellular KRAS:RAF Disruption Assay (NanoBRET), KRAS G12A. Type of test: cell-based. The note with it: HEK293 T cells co-expressing RAF1 and KRAS G12A, 24 hours; read-out: RAS::RAF binding via NanoBRET IC50, KRAS G12A. How it is done:
as §1, §2

The next test concerns the target T9, KRAS Q61R (Homo sapiens, UniProt P01116, Q61R).
T9 construct: expressed in transfected cells
The test is described as follows: Cellular KRAS:RAF Disruption Assay (NanoBRET), KRAS Q61R. Type of test: cell-based. Conditions: HEK293 T cells co-expressing RAF1 and KRAS Q61R, 24 hours; read-out: RAS::RAF binding via NanoBRET IC50, KRAS Q61R. How it is done: as §1, §2

Another test has as its target T10, KRAS Q61H (Homo sapiens, UniProt P01116, Q61H).
T10 construct: expressed in transfected cells
In words: Cellular KRAS:RAF Disruption Assay (NanoBRET), KRAS Q61H. Type of test: cell-based. Conditions: HEK293 T cells co-expressing RAF1 and KRAS Q61H, 24 hours; read-out: RAS::RAF binding via NanoBRET IC50, KRAS Q61H. How it is done:
as §1, §2

A further test addresses T11, KRAS WT (Homo sapiens, UniProt P01116).
T11 construct: expressed in transfected cells
In words: Cellular KRAS:RAF Disruption Assay (NanoBRET), KRAS WT. Type of test: cell-based. The note with it: HEK293 T cells co-expressing RAF1 and wild type KRAS, 24 hours; read-out: RAS::RAF binding via NanoBRET IC50, KRAS WT. How it is done: as §1, §2

T3 sequence (P01116 1-188 isoform P01116-2 G12V): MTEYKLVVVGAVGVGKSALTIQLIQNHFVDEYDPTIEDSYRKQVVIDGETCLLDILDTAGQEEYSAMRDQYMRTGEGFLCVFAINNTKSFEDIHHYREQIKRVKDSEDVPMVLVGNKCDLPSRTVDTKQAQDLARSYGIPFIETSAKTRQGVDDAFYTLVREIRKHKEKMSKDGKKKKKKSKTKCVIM
T11 sequence (P01116 1-188 isoform P01116-2): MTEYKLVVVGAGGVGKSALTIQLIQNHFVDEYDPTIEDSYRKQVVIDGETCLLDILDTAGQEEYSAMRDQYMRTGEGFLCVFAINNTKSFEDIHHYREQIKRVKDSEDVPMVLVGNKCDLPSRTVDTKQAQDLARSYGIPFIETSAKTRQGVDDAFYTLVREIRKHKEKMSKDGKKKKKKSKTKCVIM
T6 sequence (P01116 1-188 isoform P01116-2 G12S): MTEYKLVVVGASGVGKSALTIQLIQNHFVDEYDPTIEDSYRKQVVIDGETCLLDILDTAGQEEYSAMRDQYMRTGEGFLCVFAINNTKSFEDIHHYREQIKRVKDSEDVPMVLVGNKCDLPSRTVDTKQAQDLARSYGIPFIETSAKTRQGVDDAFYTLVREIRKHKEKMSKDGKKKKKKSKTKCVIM
T1 sequence (P01116 1-188 isoform P01116-2 G12R): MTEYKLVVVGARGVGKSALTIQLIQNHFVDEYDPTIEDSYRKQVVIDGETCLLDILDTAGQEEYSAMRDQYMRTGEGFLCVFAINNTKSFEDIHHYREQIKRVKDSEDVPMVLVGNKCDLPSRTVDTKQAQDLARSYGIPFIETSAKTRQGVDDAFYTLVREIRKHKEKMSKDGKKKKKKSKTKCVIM
T5 sequence (P01116 1-188 isoform P01116-2 A146T): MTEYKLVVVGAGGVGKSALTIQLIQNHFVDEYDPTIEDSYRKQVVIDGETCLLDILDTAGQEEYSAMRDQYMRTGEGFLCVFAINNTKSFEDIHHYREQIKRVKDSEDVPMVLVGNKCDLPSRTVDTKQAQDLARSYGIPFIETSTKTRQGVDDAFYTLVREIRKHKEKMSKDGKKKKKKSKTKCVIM
T2 sequence (P01116 1-188 isoform P01116-2 G12D): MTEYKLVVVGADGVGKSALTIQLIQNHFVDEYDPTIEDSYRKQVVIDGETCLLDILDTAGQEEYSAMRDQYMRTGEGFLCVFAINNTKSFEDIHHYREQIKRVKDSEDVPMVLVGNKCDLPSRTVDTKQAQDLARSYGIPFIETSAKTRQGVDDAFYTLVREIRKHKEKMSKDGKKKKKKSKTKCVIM
T4 sequence (P01116 1-188 isoform P01116-2 G12C): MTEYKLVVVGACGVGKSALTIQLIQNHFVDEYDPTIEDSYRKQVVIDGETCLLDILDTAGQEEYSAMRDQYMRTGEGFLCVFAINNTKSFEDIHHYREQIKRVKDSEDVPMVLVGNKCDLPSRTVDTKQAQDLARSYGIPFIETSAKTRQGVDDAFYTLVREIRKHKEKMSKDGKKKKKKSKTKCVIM
T7 sequence (P01116 1-188 isoform P01116-2 G13D): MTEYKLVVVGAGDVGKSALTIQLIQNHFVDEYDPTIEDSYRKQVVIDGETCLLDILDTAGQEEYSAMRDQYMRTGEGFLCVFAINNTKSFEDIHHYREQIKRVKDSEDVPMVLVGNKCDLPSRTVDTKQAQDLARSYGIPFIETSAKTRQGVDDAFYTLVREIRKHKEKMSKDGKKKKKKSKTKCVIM
T10 sequence (P01116 1-188 isoform P01116-2 Q61H): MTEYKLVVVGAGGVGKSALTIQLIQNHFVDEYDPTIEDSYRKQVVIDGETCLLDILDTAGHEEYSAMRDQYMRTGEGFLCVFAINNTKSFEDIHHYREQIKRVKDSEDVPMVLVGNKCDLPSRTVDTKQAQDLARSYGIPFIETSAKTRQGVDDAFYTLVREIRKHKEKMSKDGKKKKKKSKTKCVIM
T9 sequence (P01116 1-188 isoform P01116-2 Q61R): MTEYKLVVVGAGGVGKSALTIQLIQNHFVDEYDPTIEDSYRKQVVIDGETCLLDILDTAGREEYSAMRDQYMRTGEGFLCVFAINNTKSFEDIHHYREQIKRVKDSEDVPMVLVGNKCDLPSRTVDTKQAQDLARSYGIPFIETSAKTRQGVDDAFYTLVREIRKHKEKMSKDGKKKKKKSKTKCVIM
T8 sequence (P01116 1-188 isoform P01116-2 G12A): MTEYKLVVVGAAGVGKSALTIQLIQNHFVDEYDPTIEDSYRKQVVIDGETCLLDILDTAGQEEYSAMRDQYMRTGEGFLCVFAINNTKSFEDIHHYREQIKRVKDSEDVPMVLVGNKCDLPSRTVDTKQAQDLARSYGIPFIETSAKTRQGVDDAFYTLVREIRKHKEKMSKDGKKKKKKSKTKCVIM

Turning to `C#Cc1c(F)ccc2cc(O)cc(-c3ncc4c(N5CC6CCC(C5)N6C(=O)C5CC5)nc(OC[C@@]56CCCN5C[C@H](F)C6)nc4c3F)c12` [Example 6-2, 4-(2-{[(2R,7aS)-2-fluoro-hexahydro-1H-pyrrolizin-7a-yl]methoxy}-4-{8-cyclopropanecarbonyl-3,8-diazabicyclo[3.2.1]octan-3-yl}-8-fluoropyrido[4,3-d]pyrimidin-7-yl)-5-ethynyl-6-fluoronaphthalen-2-ol], the IC50 on KRAS G12R was greater than 10 µM; on KRAS G12D [1], 0.9 µM; at KRAS G12V, 0.405 µM; at KRAS G12C, 0.117 µM; at KRAS A146T, 0.179 µM; at KRAS G12S it was 0.109 µM. Moreover, the IC50 on KRAS G13D was 0.072 µM; against KRAS G12D [2], less than 0.002 µM; on KRAS G12A it was 0.029 µM; on KRAS Q61R it was greater than 10 µM; on KRAS Q61H it was 0.234 µM; at KRAS WT, 0.069 µM.
Consider `C#Cc1c(F)ccc2cc(O)cc(-c3ncc4c(N5CCCOCC5)nc(OC[C@]56CCC[C@H]5N(C)CCC6)nc4c3F)c12` [Example 1-3, 4-(2-{[(4aS,7aR)-1-methyl-octahydro-1H-cyclopenta[b]pyridin-4a-yl]methoxy}-8-fluoro-4-(1,4-oxazepan-4-yl)pyrido[4,3-d]pyrimidin-7-yl)-5-ethynyl-6-fluoronaphthalen-2-ol], for which the half-inhibitory concentration (IC50) was 0.133 µM at KRAS G12R; less than 0.002 µM against KRAS G12D [1]; 0.019 µM on KRAS G12V; 0.003 µM at KRAS G12C; 0.016 µM at KRAS A146T; 0.004 µM on KRAS G12S. The IC50 was 0.005 µM on KRAS G13D; less than 0.002 µM at KRAS G12D [2]; 0.002 µM on KRAS G12A; 1.46 µM on KRAS Q61R; 0.007 µM on KRAS Q61H; 0.002 µM on KRAS WT.
In the case of `C#Cc1c(F)ccc2cc(O)cc(-c3ccc4c(N5CC6CCC(C5)N6C(=O)C(F)(F)F)nc(OC[C@]56CCC[C@H]5N(C)CCC6)nc4c3F)c12` [Example 7-7, 1-[3-(2-{[(4aS,7aR)-1-methyl-octahydro-1H-cyclopenta[b]pyridin-4a-yl]methoxy}-7-(8-ethynyl-7-fluoro-3-hydroxynaphthalen-1-yl)-8-fluoroquinazolin-4-yl)-3,8-diazabicyclo[3.2.1]octan-8-yl]-2,2,2-trifluoroethan-1-one], the concentration for half-maximal inhibition (IC50) on KRAS G12R is greater than 5 µM; on KRAS G12D [1] it was 0.007 µM; at KRAS G12V, greater than 5 µM; on KRAS G12C it was 0.346 µM; on KRAS A146T, 0.577 µM; on KRAS G12S it was 0.422 µM. The IC50 on KRAS G13D is 0.407 µM; on KRAS G12D [2], less than 0.002 µM; on KRAS G12A it was 0.226 µM; at KRAS Q61R it was greater than 5 µM; on KRAS Q61H, 0.504 µM; at KRAS WT, 0.242 µM.
As to `C#Cc1c(F)ccc2cc(O)cc(-c3ncc4c(N5CCOCC5)nc(OC[C@@]56CCCN5C[C@H](F)C6)nc4c3F)c12` [Example 1-1, 4-(2-{[(2R,7aS)-2-fluoro-hexahydro-1H-pyrrolizin-7a-yl]methoxy}-8-fluoro-4-(morpholin-4-yl)pyrido[4,3-d]pyrimidin-7-yl)-5-ethynyl-6-fluoronaphthalen-2-ol], the 50% inhibitory concentration (IC50) on KRAS G12R is 5.3 µM; at KRAS G12V it was 0.199 µM; on KRAS G12C, 0.025 µM; on KRAS A146T it was 0.076 µM; on KRAS G12S, 0.029 µM; on KRAS G13D it was 0.045 µM. For the same compound, the IC50 was 0.016 µM at KRAS G12A, greater than 10 µM on KRAS Q61R, 0.099 µM at KRAS Q61H and 0.006 µM on KRAS WT.
